pIC50: −log10 of the molar value.
Assays:
[1] = biological target: T1, CARP-1 binding with APC-2 (Homo sapiens, UniProt Q8IX12); assay: Fluorescence polarization assay (FPA) for inhibitors of CARP-1-APC-2 binding; details: fluorescein-tagged A-epitope peptide and Gst-APC-2 (685-754)
T1 construct: made in house; host or cells: E. coli BL-21 (DE3)
T1 sequence (Q8IX12 951-980 limits assumed): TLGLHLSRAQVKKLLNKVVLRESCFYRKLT
Protocol: Although, several formats for FP are indicated in the published literature (Inglese, J., Johnson, R. L., Simeonov, A., Xia, M., Zheng, W., Austin, C. P., Auld, D. S. (2007) Nat. Chem. Biol. 3(8), 466-79), the assays using 96-well or higher density plates are often and routinely employed. Optimization of FP for HTS involves several steps including the determination of Kd values, optimization of the buffer conditions, incubation and measurement times, and determination of the DMSO tolerance of the assay. Our goal was to minimize variation and to aim for adequate signal:background without adversely effecting the sensitivity of the assay. The FP polarization values in milli-polarization (mp) were measured to determine changes in the mp (Amp=mp of bound peptide mp of free peptide), the Kd and Ki constants of the binding. A 30-mer CARP-1 peptide that contained APC-2-binding epitope (A-epitope peptide) was commercially synthesized (US Biologicals, MA), labeled with fluorescein at the N-terminus, and purified to >98% purity. Increasing concentrations of A-epitope peptide were incubated with the indicated quantities of the affinity-purified Gst-APC-2 (685-754) protein in assay buffer containing 0.01% triton-X100. Affinity-purified Gst-NEMO (221-317) was included as a negative control. The Δmp was measured by excitation at 485 nm and emission at 538 nm.
The kinetics of CARP-1 binding with APC-2 was determined, and whether this binding could be exploited to identify SMIs of CARP-1-APC-2 interaction was investigated. For this purpose, a FPA utilizing the affinity-purified Gst-APC-2 (685-754) protein and the fluorescein-tagged A-epitope peptide was developed as detailed in methods. […] The signal to background ratio of 6 underscored robustness of this assay. Since, the quality (precision) and suitability of the FPA for HTS is usually defined by the Z′ factor (25, 40), we utilized the positive and negative control mean signals (μc+ and μc−, respectively) and their standard deviations (σc+ and σc−) to calculate the Z′ factor using the equation Z′=1−[3(σc++σc−)/(μc+−μc−)]. […]

[2] = biological target: T2, His-TAT-HA-tagged A-epitope peptide [CARP-1 (951-980)] (Homo sapiens, UniProt Q8IX12); assay: In vitro binding of SMIs, immobilized A-epitope peptide pre-incubated with CFM; details: 100 μM, 30 min at RT; WB with anti-Gst
T2 construct: wild-type or scrambled His-TAT-HA-CARP-1 (951-980) peptides; made in house; host or cells: E. coli BL-21 (DE3)
T2 sequence (Q8IX12 951-980 limits assumed): T1 sequence (Q8IX12 951-980 limits assumed)
Protocol: The CFM-4 and 5 were separately dissolved in DMSO to obtain a stock of 20-50 mM. For in vitro binding experiments we utilized affinity-purified Gst-APC-2 (685-754) and His-TAT-HA-tagged A-epitope (WT) peptide. Ten nanogram of the His-TAT-HA-tagged A-epitope (WT) peptide was first allowed to bind with Ni-NTA beads (ProBond, InVitrogen), and then the reaction was incubated with DMSO (control), 100 μM CFM-4, or 100 μM CFM-5 for 30 min at RT. The reactions were then subjected to three washes with the binding buffer, followed by incubation with 10 ng of affinity-purified Gst-APC-2 (685-754) peptide for 30 min at RT. The reactions were washed again for three times with PBS, eluted and analyzed on a SDS-PAGE followed by western blotting (WB) with anti-Gst antibodies. A similar strategy was performed by immobilizing the Gst-APC-2 (685-754) peptide with Gst-beads. The beads were washed, incubated with DMSO or the CFMs, and the reactions washed again. The reactions were then allowed to incubate with affinity purified A-epitope peptide, and the complexes analyzed by SDS-PAGE followed by WB with anti HA-tag antibodies.

[3] = system: caspase-3, caspase-8, caspase-9, caspase-2; assay: ApoAlert Caspase profiling plate, fluorescence-based; assay type: cell-based
Protocol: For apoptosis ELISA assay, 4−5×10^2 cells were seeded in 96-well plates and treated essentially as indicated in the MTT assay above. Untreated as well as treated cells were lysed, and levels of mono and oligo-nucleosomal DNA fragments in the lysates were determined by measuring optical density of each sample at 405 nm and 495 nm wavelengths. […] For TUNEL labeling, the cells were treated with various agents, fixed, labeled and photographed essentially as detailed in immuno-localization protocols described before (Zhang, L., Levi, E., Majumder, P., Yu, Y., Aboukameel, A., Du, J., Xu, H., Mohammad, R. M., Hatfield, J. S., Wali, A., Adsay, V., Majumdar, A. P. N., and Rishi, A. K. (2007) Mol. Cancer. Ther. 6(5), 1661-1672). […] Cell lysates derived from vehicle DMSO (Control) or CFM-4-treated cells were added to the wells that had immobilized fluorogenic caspase-3, caspase-8, caspase-9, or caspase-2 substrates. The fluorescence released from the activated caspase-dependent cleavage of respective substrate was detected by a plate reader at the excitation and emission wavelengths of 380 nm and 460 nm, respectively.

Row | pIC50 [1] | binding of immobilized A-epitope peptide with Gst-APC-2 (685-754) after pre-incubation with compound [2] | activation of caspases (fluorescence-based quantitative assay) [3] | Structure (SMILES)
1 | 5.39 |  |  | Cc1cc(Br)cc2c1NC(=O)/C2=C1\SC(=S)NC1=O [CFM-1, (Z)-5-(5-bromo-7-methyl-2-oxoindolin-3-ylidene)-2-thioxothiazolidin-4-one]
2 | 6.12 | abrogated its binding | activation of caspases 3, 8, 9, and 2 | O=C1N(Cc2ccccc2Cl)c2ccccc2C12NN=C(c1ccccc1)S2 (stereo not shown) [CFM-4, 1-(2-chlorobenzyl)-5′-phenyl-3′H-spiro[indoline-3,2′-[1,3,4]thiadiazol]-2-one]
